Laboratory results from patent US7745191B2, “Method of producing heterodimer derivative of protein phosphatase type 2A enzyme” (Tropical Technology Center Ltd., priority 2005, dated 2010).

Experiment: Phosphatase activity of the purified protein using p-nitrophenylphosphate as substrate
Format: biochemical
Conditions: infected High Five cells incubated at 19° C. for 4 days versus 27° C. for 3 days (comparative example); FIG. 4
Description: By SDS-PAGE (0.2 μg of protein; 10% SDS-gel), the purified recombinant protein in the recovered eluate was confirmed. The activity of the purified protein was determined according to a method using p-nitrophenylphosphate as substrate (Takai et al. 1995, Biochem J. 306:657-665).
In both figures, the term “27° C.” indicates the tagged catalytic unit of PP2A (comparative example), which was prepared in the same manner as in Example 3 except that the cells infected with the recombinant baculovirus was incubated at 27° C. for 3 days. In FIG. 3, the both end side lanes indicate a marker, the 2nd lane from left indicates the tagged catalytic unit of PP2A prepared by incubation at 27° C., and the 3rd lane from left indicates the tagged catalytic unit of PP2A prepared by incubation at 19° C.

tagged catalytic unit of PP2A: Recombinant human PP2A catalytic subunit carrying a polyhistidine tag (His-PP2Acα, His-PP2Acβ), expressed in baculovirus-infected High Five cells
enhancement of activity to p-nitrophenylphosphate: ≥ 6 times
